“And” between values parts separate entries of the source, which are not always exact repeats. Equal entries are not always repeated.
experiment: Biochemical Assay: Test compounds were placed in a Greiner Bio-One (Monroe, N.C.) 1536-well black solid bottom assay plate. 200 millimolar (mM) Tris HCl, pH 7.4, 100 micromolar (μM) EDTA and 0.01% TWEEN-20™, final concentration, was used as the assay buffer. The LDHA reagent was 2 nanomolar (nM) Human LDHA (Meridian Life Science, Inc., Memphis, Tenn.), final concentration, in assay buffer.

| SMILES | IC50 |
| --- | --- |
| NS(=O)(=O)c1ccc(Cc2c(-c3ccc(F)c(-c4cccc(F)c4)c3)nn(-c3nc(C(=O)O)cs3)c2C2CC2)cc1F | < 100 nM |
| CCOC(=O)c1csc(-n2nc(-c3ccc(F)c(C#CC4CC4)c3)c(Cc3ccc(S(N)(=O)=O)cc3)c2CC2CC2)n1 | in the range around 29000 nM |
| NS(=O)(=O)c1ccc(Cc2c(-c3cccc(-c4ccc(F)cc4)c3)nn(-c3nc(C(=O)O)cs3)c2C2CC2)cc1F | < 100 nM |
| NS(=O)(=O)c1ccc(Cc2c(CC3CC3)nn(-c3nc(C(=O)O)cs3)c2-c2ccc(F)c(Br)c2)cc1 | in the range around 29000 nM |
| CC#Cc1cc(-c2nn(-c3nc(C(=O)O)cs3)c(CC3CC3)c2Cc2cccc(S(N)(=O)=O)c2)ccc1F | < 100 nM |
| COc1cccc(-c2cccc(-c3c(Cc4ccc(S(N)(=O)=O)cc4F)c(C4CC4)nn3-c3nc(C(=O)O)cs3)c2)c1 | in the range around 29000 nM |
| COc1cccc(-c2cc(-c3nn(-c4nc(C(=O)O)cs4)c(CC4CC4)c3Cc3ccc(S(N)(=O)=O)cc3F)ccc2F)c1 | < 100 nM |
| NS(=O)(=O)c1ccc(Cc2c(-c3ccc(F)c(C#CC4CCCC4)c3)nn(-c3nc(C(=O)O)cs3)c2CC2CC2)cc1F | < 100 nM |
| NS(=O)(=O)c1ccc(Cc2c(-c3cccc(N4CCC(F)(F)CC4)c3)nn(-c3nc(C(=O)O)cs3)c2CC2CC2)cc1F | < 100 nM |
| CCOC(=O)c1csc(-n2nc(-c3cccc(C#CC4CCCC4)c3)c(Cc3ccc(S(N)(=O)=O)c(F)c3)c2CC2CC2)n1 | > 57000 nM |
| NS(=O)(=O)c1ccc(Cc2c(-c3ccc(F)c(C4=CCNCC4)c3)nn(-c3nc(C(=O)O)cs3)c2CC2CC2)cc1F | < 100 nM |
| NS(=O)(=O)c1ccc(Cc2c(C3CC3)nn(-c3nc(C(=O)O)cs3)c2-c2cccc(-c3ccc(F)cc3)c2)cc1F | in the range around 29000 nM |
| O=C(O)c1csc(-n2nc(-c3cc(F)cc(F)c3)cc2O)n1 | > 57000 nM |
| NS(=O)(=O)c1ccc(Cc2c(-c3ccc(F)c(C#CC4CCOC4)c3)nn(-c3nc(C(=O)O)cs3)c2CC2CC2)cc1F (stereo not given) | < 100 nM |
| NS(=O)(=O)c1ccc(Cc2c(-c3ccc(F)c(-c4cccc(F)c4)c3)nn(-c3nc(C(=O)O)cs3)c2CC2CC2)cc1F | < 100 nM |
| NS(=O)(=O)c1ccc(Cc2c(-c3cccc(-c4ccc(F)cc4)c3)nn(-c3nc(C(=O)O)cs3)c2C(F)(F)F)cc1 | < 100 nM |
| CCOC(=O)c1csc(-n2nc(-c3ccc(F)c(-c4cccc(OC)c4)c3)c(Cc3ccc(S(N)(=O)=O)c(F)c3)c2C2CC2)n1 | > 57000 nM |
| CCOC(=O)c1csc(-n2nc(-c3cccc(-c4ccc(C)cc4)c3)c(Cc3ccc(S(N)(=O)=O)c(F)c3)c2CC2CC2)n1 | in the range around 29000 nM and > 57000 nM |
| NS(=O)(=O)c1ccc(Cc2c(-c3cccc(-c4ccccc4)c3)nn(-c3nc(C(=O)O)cs3)c2CC2CC2)c(F)c1 | < 100 nM |
| NS(=O)(=O)c1ccc(Cc2c(-c3cccc(OCc4ccccc4)c3)nn(-c3nc(C(=O)O)cs3)c2CC2CC2)c(F)c1 | < 100 nM |
| NS(=O)(=O)c1ccc(Cc2c(-c3ccc(F)c(C#CC4CCC4)c3)nn(-c3nc(C(=O)O)cs3)c2CC2CC2)cc1F | < 100 nM |
| Cc1ccc(-c2cc(-c3nn(-c4nc(C(=O)O)cs4)c(C4CC4)c3Cc3ccc(S(N)(=O)=O)cc3F)ccc2F)cc1 | < 100 nM |
| NS(=O)(=O)c1ccc(Cc2c(-c3ccc(F)c(-c4cccc(CN5CCOCC5)c4)c3)nn(-c3nc(C(=O)O)cs3)c2CC2CC2)cc1F | < 100 nM |

| SMILES | IC50 |
| --- | --- |
| CNS(=O)(=O)c1ccc(Cc2c(-c3cccc(-c4ccccc4)c3)nn(-c3nc(C(=O)O)cs3)c2O)cc1 | > 57000 nM |
| COc1cc(-c2nn(-c3nc(C(=O)O)cs3)c(CC3CC3)c2Cc2ccc(S(N)(=O)=O)cc2)ccc1F | < 100 nM |
| NS(=O)(=O)c1ccc(Cc2c(-c3ccc(F)c(-c4ccc(F)cc4)c3)nn(-c3nc(C(=O)O)cs3)c2CC2CC2)cc1 | < 100 nM |
| Cc1ccc(-c2cccc(-c3c(Cc4ccc(S(N)(=O)=O)c(F)c4)c(CC4CC4)nn3-c3nc(C(=O)O)cs3)c2)cc1 | in the range around 29000 nM |
| CC(F)C#Cc1cc(-c2nn(-c3nc(C(=O)O)cs3)c(CC3CC3)c2Cc2ccc(S(N)(=O)=O)c(F)c2)ccc1F (stereo not given) | < 100 nM |
| NS(=O)(=O)c1ccc(Cc2c(CC3CC3)nn(-c3nc(C(=O)O)cs3)c2-c2ccc(F)c(-c3ccc(C4CC4)cc3)c2)cc1 | in the range around 29000 nM |
| NS(=O)(=O)c1ccc(Cc2c(-c3cccc(C#CC4CCCC4)c3)nn(-c3nc(C(=O)O)cs3)c2CC2CC2)cc1F | < 100 nM |
| COc1cccc(-c2cc(-c3c(Cc4ccc(S(N)(=O)=O)cc4)c(CC4CC4)nn3-c3nc(C(=O)O)cs3)ccc2F)c1 | > 57000 nM |
| CCOC(=O)c1csc(-n2nc(CC3CC3)c(Cc3ccc(S(N)(=O)=O)cc3F)c2-c2ccc(F)c(-c3cccc(OC)c3)c2)n1 | > 57000 nM |
| CCOC(=O)c1csc(-n2nc(C3CCCCC3)c(Oc3ccc(S(N)(=O)=O)cc3)c2-c2ccccc2)n1 | > 57000 nM |
| NS(=O)(=O)c1ccc(Cc2c(CC3CC3)nn(-c3nc(C(=O)O)cs3)c2-c2ccc(F)c(-c3cccc(F)c3)c2)cc1F | in the range around 29000 nM |
| CCOC(=O)c1csc(-n2nc(-c3ccc(F)c(-c4ccc(C)cc4)c3)c(Cc3ccc(S(N)(=O)=O)c(F)c3)c2CC2CC2)n1 | in the range around 29000 nM |
| NS(=O)(=O)c1ccc(Cc2c(C3CC3)nn(-c3nc(C(=O)O)cs3)c2-c2cccc(-c3cccc(F)c3)c2)cc1F | in the range around 29000 nM |
| NS(=O)(=O)c1ccc(Cc2c(-c3ccc(F)c(-c4cccc(F)c4)c3)nn(-c3nc(C(=O)O)cs3)c2C2CC2)c(F)c1 | < 100 nM |
| NS(=O)(=O)c1ccc(Cc2c(-c3ccc(F)c(-c4ccc(F)cc4)c3)nn(-c3nc(C(=O)O)cs3)c2C(F)(F)F)cc1 | < 100 nM |
| NS(=O)(=O)c1ccc(Cc2c(-c3cccc(N4CCCC(F)(F)C4)c3)nn(-c3nc(C(=O)O)cs3)c2CC2CC2)cc1F | < 100 nM |
| CCOC(=O)c1csc(-n2nc(CC3CC3)c(Cc3ccc(S(N)(=O)=O)c(F)c3)c2-c2ccc(F)c(-c3cccc(OC)c3)c2)n1 | > 57000 nM |
| CCOC(=O)c1csc(-n2nc(-c3ccc(F)c(-c4cccc(F)c4)c3)c(Cc3ccc(S(N)(=O)=O)c(F)c3)c2CC2CC2)n1 | > 57000 nM |
| CCOC(=O)c1csc(-n2nc(-c3ccc(F)c(C#CC4CCCC4)c3)c(Cc3ccc(S(N)(=O)=O)c(F)c3)c2C2CC2)n1 | in the range around 29000 nM |
| Cc1csc(-c2cc(-c3nn(-c4nc(C(=O)O)cs4)c(CC4CC4)c3Cc3ccc(S(N)(=O)=O)cc3F)ccc2F)c1 | < 100 nM |
| CCOC(=O)c1csc(-n2nc(-c3ccc(F)c(-c4cccc(OC)c4)c3)c(Cc3ccc(S(N)(=O)=O)cc3F)c2CC2CC2)n1 | > 57000 nM |
| NS(=O)(=O)c1ccc(Cc2c(-c3cccc(-c4cccc(F)c4)c3)nn(-c3nc(C(=O)O)cs3)c2C(F)(F)F)cc1 | < 100 nM |

From ChEMBL document CHEMBL5728971, “Small molecule inhibitors of lactate dehydrogenase and methods of use thereof” (2022)
